target: T1, human plasma renin (Homo sapiens, UniProt P00797); assay: Inhibition of human plasma renin, in vitro method of Boger et al.; assay type: biochemical; details: J. Med. Chem. (1985) 28, 1779, read-out: IC₅₀
T1 construct: from tissue; host or cells: human plasma
T1 sequence (P00797 67-406): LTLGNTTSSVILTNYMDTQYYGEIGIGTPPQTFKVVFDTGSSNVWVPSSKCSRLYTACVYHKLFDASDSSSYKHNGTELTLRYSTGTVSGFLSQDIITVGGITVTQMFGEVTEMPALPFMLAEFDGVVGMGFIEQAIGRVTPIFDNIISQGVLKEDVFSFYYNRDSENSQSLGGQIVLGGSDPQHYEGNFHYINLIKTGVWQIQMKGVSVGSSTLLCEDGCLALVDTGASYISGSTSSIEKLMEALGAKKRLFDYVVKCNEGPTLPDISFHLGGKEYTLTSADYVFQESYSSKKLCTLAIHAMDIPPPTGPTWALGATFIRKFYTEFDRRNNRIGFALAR
Method: Inhibition of human plasma renin was assayed using the in vitro method described by Boger, et. al., J. Med. Chem. (1985) 28, 1779. IC₅₀-1.3 nM.

| Compound | IC50 [nM] |
| --- | --- |
| C=CC[C@H]1COC[C@@H]2C[C@@H]([C@H](O)[C@H](CC3CCCCC3)NC(=O)[C@H](Cc3c[nH]cn3)NC(=O)[C@H](Cc3ccccc3)NC(=O)OC(C)(C)C)C(=O)N21 [Example 3A, Boc-Phe-His-(ACHP)-5(S)-Allyl-7-Oxa-9(S)-Indolizidin-3-One-2(S)-yl] | 1.3 |
| C=C(C)C[C@H]1COC[C@@H]2C[C@@H]([C@H](O)[C@H](CC3CCCCC3)NC(=O)[C@H](Cc3cnc[nH]3)NC(=O)[C@H](Cc3ccccc3)NC(=O)OC(C)(C)C)C(=O)N12 [Example 3B, Boc-Phe-His-(ACHP)-5(S)-(2-Methallyl)-7-Oxa-9(S)-Indolizidin-3-One-2(S)-yl] | 0.97 |
| CC(C)C[C@H]1COC[C@@H]2C[C@@H]([C@H](O)[C@H](CC3CCCCC3)NC(=O)[C@H](Cc3cnc[nH]3)NC(=O)[C@H](Cc3ccccc3)NC(=O)OC(C)(C)C)C(=O)N12 [Example 3C, Boc-Phe-His-(ACHP)-5(S)-(2-Methylpropyl)-7-Oxa-9(S)-Indolizidin-3-One-2(S)-yl] | 2 |
| CC(C)(C)OC(=O)N[C@@H](Cc1ccccc1)C(=O)N[C@@H](Cc1cnc[nH]1)C(=O)N[C@@H](CC1CCCCC1)[C@@H](O)[C@@H]1C[C@H]2COC[C@H](C3CCCC3)N2C1=O [Example 3D, Boc-Phe-His-(ACHP)-5(S)-Cyclopentyl-7-Oxa-9(S)-Indolizidin-3-One-2(S)-yl] | 1 |
| CCC[C@H]1COC[C@@H]2C[C@@H]([C@H](O)[C@H](CC3CCCCC3)NC(=O)[C@H](Cc3cnc[nH]3)NC(=O)[C@H](Cc3ccccc3)NC(=O)OC(C)(C)C)C(=O)N21 [Example 3E, Boc-Phe-His-(ACHP)-5(S)-Propyl-7-Oxa-9(S)-Indolizidin-3-One-2(S)-yl] | 1 |
| Boc-Phe-His-(ACHP)-6(S)-Methyl-9(S)-Indolizidin-3-One-2(S)-yl [Example 3XX] | 6.8 |

From patent EP0438311A2, “Di- and tripeptide renin inhibitors” (MERCK & CO. INC., priority 1990, dated 1991)
